From US8735406B2, “8-oxodihydropurine derivative” (Dainippon Sumitomo Pharma Co., Ltd., priority 2009, dated 2014) come the findings set out here.

Like-named read-outs stand apart in the source and are kept apart here.

A word on the inhibition: it is the relative decrease from the control value, in per cent. As a reminder, the IC50 is the point on the concentration scale where inhibition reaches its midpoint.

The test deals with T1, FAAH (Rattus norvegicus, UniProt P97612).
T1 construct: Preparation of Rat Brain Membranes Preparations (FAAH Enzyme Solution); from tissue; host or cells: rat cerebrum (brain membrane preparation)
T1 sequence (P97612 1-579): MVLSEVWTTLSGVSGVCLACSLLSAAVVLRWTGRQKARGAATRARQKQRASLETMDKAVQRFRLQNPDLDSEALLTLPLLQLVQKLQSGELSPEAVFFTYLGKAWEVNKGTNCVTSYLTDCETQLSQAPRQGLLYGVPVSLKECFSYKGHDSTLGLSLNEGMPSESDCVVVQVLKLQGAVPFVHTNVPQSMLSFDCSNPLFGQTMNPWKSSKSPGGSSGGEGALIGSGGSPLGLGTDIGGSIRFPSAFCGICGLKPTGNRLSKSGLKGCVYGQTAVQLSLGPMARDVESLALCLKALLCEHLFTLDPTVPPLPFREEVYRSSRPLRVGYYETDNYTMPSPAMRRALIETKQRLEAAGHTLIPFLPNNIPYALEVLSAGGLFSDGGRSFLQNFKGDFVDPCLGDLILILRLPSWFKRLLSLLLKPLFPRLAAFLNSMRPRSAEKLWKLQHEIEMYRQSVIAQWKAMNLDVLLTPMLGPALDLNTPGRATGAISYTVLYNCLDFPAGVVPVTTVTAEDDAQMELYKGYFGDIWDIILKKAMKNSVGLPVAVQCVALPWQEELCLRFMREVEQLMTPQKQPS
In words: Determination of FAAH inhibitory activity in rat (rat brain membrane preparations, [3H]-anandamide hydrolysis). In kind it is biochemical. Particulars: for inhibition at 0.1 µM: read-out: FAAH Inhibition, Inhibition Rate at 100 nM; for IC50: test substance 0.1 nM to 1 μM. In short, it runs like this:
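Compounds tested from 0.1 nM to 1 μM to derive IC50 against FAAH hydrolysis in rat brain membrane preparations (100 μg/mL). A 10-min 37 °C preincubation was followed by 10 min with [3H]-anandamide (2 nM) mixed with 2 μM unlabelled anandamide. Radioactive ethanolamine was extracted into the water/methanol layer and counted.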

[1] abbreviates: rat brain membrane preparations, 100 nM test substance.
Where [2] appears, read: rat brain membrane preparations, read-out: FAAH Inhibition IC50.

Turning to `COc1cccc(-c2ncc3c(n2)n(C)c(=O)n3C(=O)N(C)CCOc2ccc(F)cc2)c1` [Example 91, N-[2-(4-Fluorophenoxy)ethyl]-2-(3-methoxyphenyl)-N,9-dimethyl-8-oxo-8,9-dihydro-7H-purine-7-carboxamide], under setting [1], the inhibition at 0.1 µM turned out to be 103%. In addition, the IC50 under setting [2] came to 1 nM.

`COc1cccc(-c2ncc3c(n2)n(C)c(=O)n3C(=O)N(C)CCc2ccc(C(F)(F)F)cc2)c1` [Example 92, 2-(3-Methoxyphenyl)-N,9-dimethyl-8-oxo-N-{2-[4-(trifluoromethyl)phenyl]ethyl}-8,9-dihydro-7H-purine-7-carboxamide]: under setting [1], the inhibition at 0.1 µM was 103%. Moreover, the IC50 under setting [2] worked out at 4 nM.

With `COc1ccc(CCN(C)C(=O)n2c(=O)n(C)c3nc(-c4cccc(OC)c4)ncc32)cc1` [Example 93, 2-(3-Methoxyphenyl)-N-[2-(4-methoxyphenyl)ethyl]-N,9-dimethyl-8-oxo-8,9-dihydro-7H-purine-7-carboxamide], the inhibition at 0.1 µM came out at 100%. Moreover, the IC50 under setting [2] stood at 5 nM.

As for `COc1cccc(-c2ncc3c(n2)n(C)c(=O)n3C(=O)N2CC=C(/C=C/c3ccc(Cl)cc3)CC2)c1` [Example 94, 7-({4-[(E)-2-(4-Chlorophenyl)ethenyl]-3,6-dihydropyridin-1(2H)-yl}carbonyl)-2-(3-methoxyphenyl)-9-methyl-7,9-dihydro-8H-purine-8-one], under setting [1], the inhibition at 0.1 µM came out at 101%. The half-inhibitory concentration (IC50) under setting [2] amounted to 7 nM.

For `COc1cccc(-c2ncc3c(n2)n(C)c(=O)n3C(=O)N2CC=C(/C=C/c3ccc(F)cc3)CC2)c1` [Example 95, 7-({4-[(E)-2-(4-Fluorophenyl)ethenyl]-3,6-dihydropyridin-1(2H)-yl}carbonyl)-2-(3-methoxyphenyl)-9-methyl-7,9-dihydro-8H-purine-8-one], the inhibition at 0.1 µM under setting [1] is 101%. The IC50 under setting [2] came out at 3 nM.

Take `COc1cccc(-c2ncc3c(n2)n(C)c(=O)n3C(=O)N2CCC(CCc3ccc(F)cc3)CC2)c1` [Example 96, 7-({4-[2-(4-Fluorophenyl)ethyl]piperidin-1-yl}carbonyl)-2-(3-methoxyphenyl)-9-methyl-7,9-dihydro-8H-purine 8-one]: under setting [1], the inhibition at 0.1 µM was 100%. The IC50 under setting [2] turned out to be 6 nM.

In the case of `COc1cccc(-c2ncc3c(n2)n(C)c(=O)n3C(=O)N2CCN(C3CCCCC3)CC2)c1` [Example 97, 7-[(4-Cyclohexylpiperazin-1-yl)carbonyl]-2-(3-methoxyphenyl)-9-methyl-7,9-dihydro-8H-purine-8-one], the inhibition at 0.1 µM under setting [1] was 99%. In addition, under setting [2], the half-maximal inhibitory concentration (IC50) was found to be 37 nM.

Take `COc1cccc(-c2ncc3c(n2)n(C)c(=O)n3C(=O)N2CCN(C3CCCC3)CC2)c1` [Example 98, 7-[(4-Cyclopentylpiperazin-1-yl)carbonyl]-2-(3-methoxyphenyl)-9-methyl-7,9-dihydro-8H-purine-8-one]: the inhibition at 0.1 µM under setting [1] is 93%. The IC50 under setting [2] was 40 nM.

Regarding `COc1cccc(-c2ncc3c(n2)n(C)c(=O)n3C(=O)N2CCN(CC(F)(F)F)CC2)c1` [Example 99, 2-(3-Methoxyphenyl)-9-methyl-7-{[4-(2,2,2-trifluoroethyl)piperazin-1-yl]carbonyl}-7,9-dihydro-8H-purine-8-one], the inhibition at 0.1 µM under setting [1] stood at 100%. Moreover, the IC50 under setting [2] worked out at 7 nM.

`COc1cccc(-c2ncc3c(n2)n(C)c(=O)n3C(=O)N2CCN(CCC3CCCCC3)CC2)c1` [Example 100, 7-{[4-(2-Cyclohexylethyl)piperazin-1-yl]carbonyl}-2-(3-methoxyphenyl)-9-methyl-7,9-dihydro-8H-purine-8-one]: the inhibition at 0.1 µM under setting [1] is 100%. Moreover, under setting [2], the IC50 was 9 nM.

For `COc1cccc(-c2ncc3c(n2)n(C)c(=O)n3C(=O)N2CCC(COc3ccccc3)CC2)c1` [Example 101, 2-(3-Methoxyphenyl)-9-methyl-7-{[4-(phenoxymethyl)piperidin-1-yl]carbonyl}-7,9-dihydro-8H-purine-8-one], under setting [1], the inhibition at 0.1 µM turned out to be 102%. Moreover, the IC50 under setting [2] amounted to 7 nM.

With `COc1cccc(-c2ncc3c(n2)n(C)c(=O)n3C(=O)N2CCC(=Cc3ccc(Cl)cc3)CC2)c1` [Example 102, 7-{[4-(4-Chlorobenzylidene)piperidin-1-yl]carbonyl}-2-(3-methoxyphenyl)-9-methyl-7,9-dihydro-8H-purine-8-one], the inhibition at 0.1 µM under setting [1] is 101%. Also, the IC50 under setting [2] is 5 nM.

For the molecule `COc1cccc(-c2ncc3c(n2)n(C)c(=O)n3C(=O)N(C)CCCl)c1` [Example 103, N-(2-Chloroethyl)-2-(3-methoxyphenyl)-N,9-dimethyl-8-oxo-8,9-dihydro-7H-purine-7-carboxamide], the inhibition at 0.1 µM was 100%. Where the note is “FAAH Inhibition IC50, rat brain membrane preparations”, this molecule had an IC50 of 7 nM.

Regarding `COc1cccc(-c2ncc3c(n2)n(C)c(=O)n3C(=O)N(C)CCc2nc(-c3ccccc3)no2)c1` [Example 104, 2-(3-Methoxyphenyl)-N,9-dimethyl-8-oxo-N-[2-(3-phenyl-1,2,4-oxadiazol-5-yl)ethyl]-8,9-dihydro-7H-purine-7-carboxamide], the inhibition at 0.1 µM under setting [1] was determined as 101%. Besides, the IC50 under setting [2] worked out at 3 nM.

With `COc1cccc(-c2ncc3c(n2)n(C)c(=O)n3C(=O)N(C)CCc2ccc(Cl)c(Cl)c2)c1` [Example 105, N-[2-(3,4-Dichlorophenyl)ethyl]-2-(3-methoxyphenyl)-N,9-dimethyl-8-oxo-8,9-dihydro-7H-purine-7-carboxamide], the inhibition at 0.1 µM under setting [1] worked out at 108%. Also, the IC50 under setting [2] was 1 nM.

With `COc1cccc(-c2ncc3c(n2)n(C)c(=O)n3C(=O)N(C)CCC2=CCCCC2)c1` [Example 106, N-[2-(Cyclohex-1-en-1-yl)ethyl]-2-(3-methoxyphenyl)-N,9-dimethyl-8-oxo-8,9-dihydro-7H-purine-7-carboxamide], the inhibition at 0.1 µM under setting [1] worked out at 110%. Under setting [2], the IC50 came to 1 nM.

Turning to `CCCN(C)C(=O)n1c(=O)n(C)c2nc(-c3cccc(OC)c3)ncc21` [Example 107, 2-(3-Methoxyphenyl)-N,9-dimethyl-8-oxo-N-propyl-8,9-dihydro-7H-purine-7-carboxamide], under setting [1], the inhibition at 0.1 µM was 101%. In addition, the IC50 under setting [2] came out at 7 nM.

In the case of `COc1cccc(-c2ncc3c(n2)n(C)c(=O)n3C(=O)N(C)CC(C)C)c1` [Example 108, 2-(3-Methoxyphenyl)-N,9-dimethyl-N-(2-methylpropyl)-8-oxo-8,9-dihydro-7H-purine-7-carboxamide], the inhibition at 0.1 µM under setting [1] amounted to 94%. For the same molecule, the IC50 under setting [2] came to 22 nM.

Consider `COc1cccc(-c2ncc3c(n2)n(C)c(=O)n3C(=O)N(C)CCC2CCCCC2)c1` [Example 109, N-(2-Cyclohexylethyl)-2-(3-methoxyphenyl)-N,9-dimethyl-8-oxo-8,9-dihydro-7H-purine-7-carboxamide], for which, under setting [1], the inhibition at 0.1 µM amounted to 103%. Besides, under setting [2], the IC50 was determined as 2 nM.

Turning to `COc1cccc(-c2ncc3c(n2)n(C)c(=O)n3C(=O)N(C)CCc2ccc(Cl)cc2Cl)c1` [Example 110, N-[2-(2,4-Dichlorophenyl)ethyl]-2-(3-methoxyphenyl)-N,9-dimethyl-8-oxo-8,9-dihydro-7H-purine-7-carboxamide], under setting [1], the inhibition at 0.1 µM turned out to be 103%. Moreover, the IC50 under setting [2] turned out to be 3 nM.

For `COc1cccc(-c2ncc3c(n2)n(C)c(=O)n3C(=O)N(C)CCN2CCOCC2)c1` [Example 111], the inhibition at 0.1 µM under setting [1] amounted to 46%. In addition, the IC50 under setting [2] came out at 60 nM.

As to `COc1cccc(-c2ncc3c(n2)n(C)c(=O)n3C(=O)N2CCC(/C=C/c3ccc(Cl)cc3)CC2)c1` [Example 112, 7-({4-[(E)-2-(4-Chlorophenyl)ethenyl]piperidin-1-yl}carbonyl)-2-(3-methoxyphenyl)-9-methyl-7,9-dihydro-8H-purine-8-one], the inhibition at 0.1 µM under setting [1] was found to be 103%. Further, the IC50 under setting [2] was found to be 4 nM.

With `COc1cccc(-c2ncc3c(n2)n(C)c(=O)n3C(=O)N(C)CCc2ccc(N(C)C)cc2)c1` [Example 113, N-{2-[4-(Dimethylamino)phenyl]ethyl}-2-(3-methoxyphenyl)-N,9-dimethyl-8-oxo-8,9-dihydro-7H-purine-7-carboxamide], the inhibition at 0.1 µM under setting [1] turned out to be 103%. Moreover, the IC50 under setting [2] amounted to 3 nM.

With `COc1cccc(-c2ncc3c(n2)n(C)c(=O)n3C(=O)N(C)CCc2ccccn2)c1` [Example 114, 2-(3-Methoxyphenyl)-N,9-dimethyl-8-oxo-N-[2-(pyridin-2-yl)ethyl]-8,9-dihydro-7H-purine-7-carboxamide], the inhibition at 0.1 µM under setting [1] came to 103%. Moreover, the concentration for half-maximal inhibition (IC50) under setting [2] was 2 nM.

As to `COc1cccc(-c2ncc3c(n2)n(C)c(=O)n3C(=O)N(C)CCc2ccncc2)c1` [Example 115, 2-(3-Methoxyphenyl)-N,9-dimethyl-8-oxo-N-[2-(pyridin-4-yl)ethyl]-8,9-dihydro-7H-purine-7-carboxamide], the inhibition at 0.1 µM under setting [1] is 103%. The IC50 under setting [2] worked out at 5 nM.
